Literature values as cited in PubChem BioAssay AID1259409 (Chemical Carcinogenesis Research Information System (CCRIS), 2018).

System: rodent chemically induced tumor inhibition, incidence and multiplicity
Assay: CCRIS tumor inhibitor studies
Conditions: Route [Inhibitor]: ORAL; for tumour outcome (control, treated, inhibition, significance): Promoter: NONE USED

For `O=[Se](O)O`, the “tumour outcome (control, treated, inhibition, significance)” value (Carcinogen: AZOXYMETHANE, 25843-45-2, Dose [Inhibitor]: 2.5 PPM IN DIET BEGINNING 1 WK POST CARCINOGEN DOSE FOR DURATION OF STUDY (STUDY DURATION: 39 WK), Species: RAT, Strain/Sex: F344/MALE, Target Tissue: Type of Lesion: DUODENUM: ADENOCARCINOMA, Dose [Carcinogen]: 15 MG/KG BW 1/WK FOR 2 WK) is listed as 7/27 (26%), 8/27 (30%), -15%, not significant, the “tumour outcome (control, treated, inhibition, significance)” value (Carcinogen: AZOXYMETHANE, 25843-45-2, Dose [Inhibitor]: 2.5 PPM IN DIET BEGINNING 1 WK POST CARCINOGEN DOSE FOR DURATION OF STUDY (STUDY DURATION: 39 WK), Species: RAT, Strain/Sex: F344/MALE, Target Tissue: Type of Lesion: DUODENUM: ADENOMA, Dose [Carcinogen]: 15 MG/KG BW 1/WK FOR 2 WK) is listed as 3/27 (11%), 5/27 (19%), -73%, not significant and the “tumour outcome (control, treated, inhibition, significance)” value (Carcinogen: AZOXYMETHANE, 25843-45-2, Dose [Inhibitor]: 2.5 PPM IN DIET BEGINNING 3 WK PRIOR TO CARCINOGEN DOSE AND CONTINUING FOR 1 WK POST CARCINOGEN DOSE (STUDY DURATION: 39, Species: RAT, Strain/Sex: F344/MALE, Target Tissue: Type of Lesion: COLON: ADENOCARCINOMA, Dose [Carcinogen]: 15 MG/KG BW 1/WK FOR 2 WK) is listed as 10/27 (37%), 9/27 (33%), 11%, not significant. The “tumour outcome (control, treated, inhibition, significance)” value (Carcinogen: AZOXYMETHANE, 25843-45-2, Dose [Inhibitor]: 2.5 PPM IN DIET BEGINNING 3 WK PRIOR TO CARCINOGEN DOSE AND CONTINUING FOR 1 WK POST CARCINOGEN DOSE (STUDY DURATION: 39, Species: RAT, Strain/Sex: F344/MALE, Target Tissue: Type of Lesion: COLON: ADENOMA, Dose [Carcinogen]: 15 MG/KG BW 1/WK FOR 2 WK) was 16/27 (59%), 13/27 (48%), 19%, not significant, the “tumour outcome (control, treated, inhibition, significance)” value (Carcinogen: AZOXYMETHANE, 25843-45-2, Dose [Inhibitor]: 2.5 PPM IN DIET BEGINNING 3 WK PRIOR TO CARCINOGEN DOSE AND CONTINUING FOR 1 WK POST CARCINOGEN DOSE (STUDY DURATION: 39, Species: RAT, Strain/Sex: F344/MALE, Target Tissue: Type of Lesion: DUODENUM: ADENOCARCINOMA, Dose [Carcinogen]: 15 MG/KG BW 1/WK FOR 2 WK) was 7/27 (26%), 13/27 (48%), -85%, not significant and the “tumour outcome (control, treated, inhibition, significance)” value (Carcinogen: AZOXYMETHANE, 25843-45-2, Dose [Inhibitor]: 2.5 PPM IN DIET BEGINNING 3 WK PRIOR TO CARCINOGEN DOSE AND CONTINUING FOR 1 WK POST CARCINOGEN DOSE (STUDY DURATION: 39, Species: RAT, Strain/Sex: F344/MALE, Target Tissue: Type of Lesion: DUODENUM: ADENOMA, Dose [Carcinogen]: 15 MG/KG BW 1/WK FOR 2 WK) was 3/27 (11%), 6/27 (22%), -100%, not significant. The “tumour outcome (control, treated, inhibition, significance)” value (Carcinogen: AZOXYMETHANE, 25843-45-2, Dose [Inhibitor]: O.5 PPM IN DIET BEGINNING 3 WK PRIOR TO CARCINOGEN DOSE AND CONTINUING FOR 1 WK POST CARCINOGEN DOSE (STUDY DURATION: 39, Species: RAT, Strain/Sex: F344/MALE, Target Tissue: Type of Lesion: COLON: ADENOCARCINOMA, Dose [Carcinogen]: 15 MG/KG BW 1/WK FOR 2 WK) was 10/27 (37%), 8/27 (30%), 19%, not significant, the “tumour outcome (control, treated, inhibition, significance)” value (Carcinogen: BENZO[A]PYRENE, 50-32-8, Dose [Inhibitor]: 4 PPM IN DRINKING WATER DAILY FOR 12 MO STARTING 12 MO BEFORE CARCINOGEN TREATMENT (STUDY DURATION: 67 WK), Species: MOUSE, Strain/Sex: BALB/MALE, Target Tissue: Type of Lesion: INJECTION SITE: SARCOMA, Dose [Carcinogen]: 4 UG/G BW ONCE) was 31/50 (62%), 14/50 (28%), 55% and the outcome (Carcinogen: DIETHYLNITROSAMINE [55-18-5], Dose [Inhibitor]: 5 PPM IN DRINKING WATER, 3 WK AFTER PARTIAL HEPATECTOMY TO END AT 12 MO (STUDY DURATION: 12 MO), DRINKING WATER, Species: RAT, Strain/Sex: F344, Target Tissue: Type of Lesion: LIVER: TUMOR DENSITY, Dose [Carcinogen]: 200 MG/KG BW ONCE, Promoter: 2-ACETYLAMINOFLUORENE [53-96-3]) was 26, 14, 46.2%, p=0.01. The “tumour outcome (control, treated, inhibition, significance)” value (Carcinogen: DIETHYLNITROSAMINE, 55-18-5, Dose [Inhibitor]: 0, 1 MG/L IN DRINKING WATER FOR DURATION OF STUDY BEGINNING 7 D PRIOR TO FIRST CARCINOGEN DOSE (STUDY DURATION: 6 MO), Species: RAT, Strain/Sex: BD6/FEMALE, Target Tissue: Type of Lesion: ESOPHAGUS: TUMOR, Dose [Carcinogen]: 80 MG/KG BW 1/WK FOR 8 WK) was 30%, 0%, 100%, p<0.05, the “tumour outcome (control, treated, inhibition, significance)” value (Carcinogen: DIETHYLNITROSAMINE, 55-18-5, Dose [Inhibitor]: 0, 5 MG/L IN DRINKING WATER FOR DURATION OF STUDY BEGINNING 7 D PRIOR TO CARCINOGEN TREATMENT (STUDY DURATION: 6 MO), Species: RAT, Strain/Sex: BD6/FEMALE, Target Tissue: Type of Lesion: ESOPHAGUS: TUMOR, Dose [Carcinogen]: 80 MG/KG BW 1/WK FOR 9 WK) was 50%, 51%, -2%, not significant and the “tumour outcome (control, treated, inhibition, significance)” value (Carcinogen: DIETHYLNITROSAMINE, 55-18-5, Dose [Inhibitor]: 0, 5 MG/L IN DRINKING WATER FOR DURATION OF STUDY BEGINNING 7 D PRIOR TO CARCINOGEN TREATMENT (STUDY DURATION: 6 MO), Species: RAT, Strain/Sex: BD6/FEMALE, Target Tissue: Type of Lesion: LIVER: TUMOR, Dose [Carcinogen]: 80 MG/KG BW 1/WK FOR 9 WK) was 100%, 95%, 5%, not significant. The “tumour outcome (control, treated, inhibition, significance)” value (Carcinogen: DIETHYLNITROSAMINE, 55-18-5, Dose [Inhibitor]: 0, 5 MG/L IN DRINKING WATER FOR DURATION OF STUDY BEGINNING 7 D PRIOR TO FIRST CARCINOGEN DOSE (STUDY DURATION: 6 MO), Species: RAT, Strain/Sex: BD6/FEMALE, Target Tissue: Type of Lesion: ESOPHAGUS: TUMOR, Dose [Carcinogen]: 80 MG/KG BW 1/WK FOR 8 WK) was 31%, 50%, -61%, not significant, the “tumour outcome (control, treated, inhibition, significance)” value (Carcinogen: DIETHYLNITROSAMINE, 55-18-5, Dose [Inhibitor]: 0, 5 MG/L IN DRINKING WATER FOR DURATION OF STUDY BEGINNING 7 D PRIOR TO FIRST CARCINOGEN DOSE (STUDY DURATION: 6 MO), Species: RAT, Strain/Sex: BD6/FEMALE, Target Tissue: Type of Lesion: LIVER: TUMOR, Dose [Carcinogen]: 80 MG/KG BW 1/WK FOR 8 WK) was 94%, 94%, 0%, not significant and the “tumour outcome (control, treated, inhibition, significance)” value (Carcinogen: DIETHYLNITROSAMINE, 55-18-5, Dose [Inhibitor]: 0, 10 MG/L IN DRINKING WATER FOR DURATION OF STUDY BEGINNING 4 D POST CARCINOGEN TREATMENT (STUDY DURATION: 6 M0), Species: RAT, Strain/Sex: BD6/FEMALE, Target Tissue: Type of Lesion: LIVER: TUMOR, Dose [Carcinogen]: 80 MG/KG BW 1/WK FOR 9 WK) was 100%, 96%, 4%, not significant.
